Measured values: ChEMBL document CHEMBL1201862, “PubChem BioAssay data set” (2004)
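Growth conditions: 96-well plates. Treatment: test compound, 48 hours, 5 concentrations. Analysis: linear interpolation between bracketing concentrations; unreached endpoints set to highest concentration. GI50 marks 50% less growth.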 Calls of active or inactive are those of the source. Rule as the data show it: active = GI50 up to about 1.1 µM and inactive = higher.

Legend:
Assay in all cases: NCI anticancer screen, dose series, 48 h
HOP-92 = test system: HOP-92
KM12 = test system: KM12
A549 = test system: A549
UACC-257 = test system: UACC-257
786-0 = test system: 786-0
U-251 = test system: U-251
SK-MEL-2 = test system: SK-MEL-2
SW-620 = test system: SW-620
A498 = test system: A498
MDA-MB-435 = test system: MDA-MB-435
NCI-H460 = test system: NCI-H460
ACHN = test system: ACHN
Hs-578T = test system: Hs-578T
EKVX = test system: EKVX
SF-295 = test system: SF-295
NCI-H23 = test system: NCI-H23
SK-OV-3 = test system: SK-OV-3
MOLT-4 = test system: MOLT-4
UO-31 = test system: UO-31
OVCAR-3 = test system: OVCAR-3

SMILES | GI50 (HOP-92) | GI50 (KM12) | GI50 (A549) | GI50 (UACC-257) | GI50 (786-0) | GI50 (U-251) | GI50 (SK-MEL-2) | GI50 (SW-620) | GI50 (A498) | GI50 (MDA-MB-435) | GI50 (NCI-H460) | GI50 (ACHN) | GI50 (Hs-578T) | GI50 (EKVX) | GI50 (SF-295) | GI50 (NCI-H23) | GI50 (SK-OV-3) | GI50 (MOLT-4) | GI50 (UO-31) | GI50 (OVCAR-3)
CCCCCCCCC/C=C1/CC(CO)(COC(=O)c2ccccc2)OC1=O (stereo not given) | 1.61 µM (inactive) | 16.7 µM (inactive) | 12.9 µM (inactive) | 14.2 µM (inactive) | 10.4 µM (inactive) | 14 µM (inactive) | 16.3 µM (inactive) | 14.4 µM (inactive) | 13.2 µM (inactive) | 11.1 µM (inactive) | 10 µM (inactive) | 12.4 µM (inactive) | 3.69 µM (inactive) | 14.9 µM (inactive) | 10 µM (inactive) | 15 µM (inactive) | 18.6 µM (inactive) | 4.98 µM (inactive) | 13 µM (inactive) | 16.7 µM (inactive)
O=C1NC2c3c(I)sc(I)c3C(O)C2O1 (stereo not given) | > 100 µM (inactive) | > 100 µM (inactive) | > 100 µM (inactive) | > 100 µM (inactive) | > 100 µM (inactive) | > 100 µM (inactive) | > 100 µM (inactive) | > 100 µM (inactive) | > 100 µM (inactive) | > 100 µM (inactive) | > 100 µM (inactive) | > 100 µM (inactive) | > 100 µM (inactive) | > 100 µM (inactive) | > 100 µM (inactive) | > 100 µM (inactive) | > 100 µM (inactive) | > 100 µM (inactive) | > 100 µM (inactive) | > 100 µM (inactive)
CCN(CC)CCn1ncc2ccc3c(c(=O)c4cccnc4n3CCN(CC)CC)c21 | 1.38 µM (inactive) | 0.603 µM (active) | 0.618 µM (active) | 1.88 µM (inactive) | 0.438 µM (active) | 0.597 µM (active) | 1.79 µM (inactive) | 0.519 µM (active) | 0.598 µM (active) | 0.655 µM (active) | 0.403 µM (active) | 0.733 µM (active) | 2.17 µM (inactive) | 1.29 µM (inactive) | 1.3 µM (inactive) | 1.29 µM (inactive) | 1.16 µM (inactive) | 0.344 µM (active) | 1.5 µM (inactive) | 1.13 µM (inactive)
FC(F)(F)c1ccc2c(c1)nc(Cc1ccccc1)n2C[C@@H]1CCCN2CCCCC12 (stereo not given in full) | 8.85 µM (inactive) | 15.8 µM (inactive) | 15 µM (inactive) | 14.7 µM (inactive) | 13.9 µM (inactive) | 15.7 µM (inactive) | 16.3 µM (inactive) | 21.7 µM (inactive) | 15.5 µM (inactive) | 14.9 µM (inactive) | 15.2 µM (inactive) | 13.5 µM (inactive) | 18.5 µM (inactive) | 8.47 µM (inactive) | 15.8 µM (inactive) | 14.6 µM (inactive) | 17.5 µM (inactive) | 12.9 µM (inactive) | 0.19 µM (active) | 14.8 µM (inactive)
O=C(Nc1ccccc1)N(CCCCN(Cc1ccccc1)C(=O)Nc1ccccc1)Cc1ccccc1 | > 100 µM (inactive) | > 100 µM (inactive) | 28.8 µM (inactive) | > 100 µM (inactive) | 95.3 µM (inactive) | > 100 µM (inactive) | > 100 µM (inactive) | > 100 µM (inactive) | > 100 µM (inactive) | > 100 µM (inactive) | > 100 µM (inactive) | > 100 µM (inactive) | > 100 µM (inactive) | 72.3 µM (inactive) | > 100 µM (inactive) | > 100 µM (inactive) | > 100 µM (inactive) | 52.7 µM (inactive) | 40 µM (inactive) | > 100 µM (inactive)
COc1ccc(C2c3cc4c(cc3C(O)C3CCC(=O)N23)OCO4)cc1 (stereo not given) | > 100 µM (inactive) | > 100 µM (inactive) | > 100 µM (inactive) | > 100 µM (inactive) | > 100 µM (inactive) | > 100 µM (inactive) | > 100 µM (inactive) | > 100 µM (inactive) | > 100 µM (inactive) | > 100 µM (inactive) | > 100 µM (inactive) | > 100 µM (inactive) | > 100 µM (inactive) | > 100 µM (inactive) | > 100 µM (inactive) | > 100 µM (inactive) | > 100 µM (inactive) | > 100 µM (inactive) | > 100 µM (inactive) | > 100 µM (inactive)
CNc1ncnc2c1ncn2C1C=CC(COS(N)(=O)=O)C1 (stereo not given) | > 100 µM (inactive) | > 100 µM (inactive) | > 100 µM (inactive) | > 100 µM (inactive) | > 100 µM (inactive) | > 100 µM (inactive) | > 100 µM (inactive) | > 100 µM (inactive) | > 100 µM (inactive) | > 100 µM (inactive) | > 100 µM (inactive) | > 100 µM (inactive) | > 100 µM (inactive) | > 100 µM (inactive) | > 100 µM (inactive) | > 100 µM (inactive) | > 100 µM (inactive) | > 100 µM (inactive) | > 100 µM (inactive) | > 100 µM (inactive)
c1ccc2c(c1)CCc1[nH]c3c(c1-2)-c1ccccc1CC3 | > 100 µM (inactive) | 48.2 µM (inactive) | 77.1 µM (inactive) | > 100 µM (inactive) | 83 µM (inactive) | > 100 µM (inactive) | > 100 µM (inactive) | 98.4 µM (inactive) | > 100 µM (inactive) | 74.6 µM (inactive) | 39.9 µM (inactive) | > 100 µM (inactive) | 36.9 µM (inactive) | > 100 µM (inactive) | 39.5 µM (inactive) | > 100 µM (inactive) | > 100 µM (inactive) | 35.6 µM (inactive) | > 100 µM (inactive) | 91.4 µM (inactive)
COc1ccc(/N=c2\ssc(C(=S)Nc3ccc(OC)cc3)c2S)cc1 | > 100 µM (inactive) | > 100 µM (inactive) | 83.6 µM (inactive) | > 100 µM (inactive) | > 100 µM (inactive) | 75.7 µM (inactive) | > 100 µM (inactive) | > 100 µM (inactive) | > 100 µM (inactive) | > 100 µM (inactive) | 39.6 µM (inactive) | > 100 µM (inactive) | > 100 µM (inactive) | > 100 µM (inactive) | > 100 µM (inactive) | > 100 µM (inactive) | > 100 µM (inactive) | > 100 µM (inactive) | > 100 µM (inactive) | > 100 µM (inactive)
Oc1nnnc2c1sc1ncccc12 | 47.8 µM (inactive) | > 100 µM (inactive) | > 100 µM (inactive) | > 100 µM (inactive) | > 100 µM (inactive) | > 100 µM (inactive) | > 100 µM (inactive) | > 100 µM (inactive) | 39.8 µM (inactive) | > 100 µM (inactive) | > 100 µM (inactive) | > 100 µM (inactive) | > 100 µM (inactive) | 63.1 µM (inactive) | > 100 µM (inactive) | > 100 µM (inactive) | 85.1 µM (inactive) | > 100 µM (inactive) | 84.5 µM (inactive) | > 100 µM (inactive)
Cc1c(Cc2ccccc2)c(Cc2ccccc2)c(C)[s+]1[O-] | 27.4 µM (inactive) | 17.3 µM (inactive) | 30.2 µM (inactive) | 19.7 µM (inactive) | 22.9 µM (inactive) | 25.6 µM (inactive) | 16.9 µM (inactive) | 26.4 µM (inactive) | 24.5 µM (inactive) | 17.7 µM (inactive) | 27.5 µM (inactive) | 32.7 µM (inactive) | 37.8 µM (inactive) | 18.4 µM (inactive) | 30.1 µM (inactive) | 28.3 µM (inactive) | 40.3 µM (inactive) | 14.7 µM (inactive) | 31.7 µM (inactive) | 30.8 µM (inactive)
COc1cc(N(CCC#N)CCC#N)ccc1C(/N=N/c1cccc([N+](=O)[O-])c1)=N\NC(=O)c1ccc(C)cc1 | 33.9 µM (inactive) | > 100 µM (inactive) | > 100 µM (inactive) | 14.5 µM (inactive) | > 100 µM (inactive) | > 100 µM (inactive) | > 100 µM (inactive) | > 100 µM (inactive) | > 100 µM (inactive) | > 100 µM (inactive) | 24.3 µM (inactive) | > 100 µM (inactive) | > 100 µM (inactive) | 10.4 µM (inactive) | > 100 µM (inactive) | 37.1 µM (inactive) | > 100 µM (inactive) | 16.9 µM (inactive) | 71 µM (inactive) | 96.8 µM (inactive)
Cc1ccc(S(N)(=O)=O)cc1 [P-TOLUENESULFONAMIDE] | 558 µM (inactive) | > 1000 µM (inactive) | > 1000 µM (inactive) | > 1000 µM (inactive) | > 1000 µM (inactive) | > 1000 µM (inactive) | > 1000 µM (inactive) | > 1000 µM (inactive) | > 1000 µM (inactive) | > 1000 µM (inactive) | > 1000 µM (inactive) | > 1000 µM (inactive) | > 1000 µM (inactive) | > 1000 µM (inactive) | > 1000 µM (inactive) | > 1000 µM (inactive) | > 1000 µM (inactive) | > 1000 µM (inactive) | > 1000 µM (inactive) | > 1000 µM (inactive)
C[C@]12C=CC(=O)C=C1CC[C@@H]1[C@@H]2CC[C@]2(C)OC(=O)CC[C@@H]12 [TESTOLACTONE] | 402 µM (inactive) | > 500 µM (inactive) | 447 µM (inactive) | 389 µM (inactive) | > 500 µM (inactive) | > 500 µM (inactive) | > 478 µM (inactive) | > 486 µM (inactive) | 347 µM (inactive) | > 500 µM (inactive) | 484 µM (inactive) | 453 µM (inactive) | 319 µM (inactive) | 318 µM (inactive) | > 500 µM (inactive) | > 491 µM (inactive) | > 479 µM (inactive) | 375 µM (inactive) | 444 µM (inactive) | 479 µM (inactive)
